Blank lines part the entries; values can stand above or below the compound they belong to.
Columns and labels:
[1] = target: T1, Lysosomal Pro-X carboxypeptidase (Mus musculus, UniProt Q7TMR0); experiment: Inhibition of PrCP-mediated angiotensin3 cleavage in mouse plasma using exogenous angiotensin III as substrate for 8 mins by LC/MS analysis
T1 sequence (Q7TMR0 whole entry): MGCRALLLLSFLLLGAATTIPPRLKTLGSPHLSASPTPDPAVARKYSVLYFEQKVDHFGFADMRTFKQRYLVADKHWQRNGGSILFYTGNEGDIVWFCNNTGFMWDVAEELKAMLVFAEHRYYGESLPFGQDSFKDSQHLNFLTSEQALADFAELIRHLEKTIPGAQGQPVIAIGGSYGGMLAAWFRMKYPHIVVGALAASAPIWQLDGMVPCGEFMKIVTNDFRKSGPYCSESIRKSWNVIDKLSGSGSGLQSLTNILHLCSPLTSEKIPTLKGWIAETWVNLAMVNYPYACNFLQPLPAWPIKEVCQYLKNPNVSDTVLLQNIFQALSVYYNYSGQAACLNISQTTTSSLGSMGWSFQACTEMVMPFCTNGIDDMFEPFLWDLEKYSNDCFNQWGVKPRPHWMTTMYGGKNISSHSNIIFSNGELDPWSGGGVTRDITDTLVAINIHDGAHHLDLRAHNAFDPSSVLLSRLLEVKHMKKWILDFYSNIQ

[2] = target: T1, Lysosomal Pro-X carboxypeptidase; experiment: Inhibition of mouse recombinant PrCP using Mca-Ala-Pro-Lys(Dnp)-OH as substrate for 30 mins by continuous fluorimetric assay
[3] = Volume of distribution at steady state in mouse at 1 mg/kg, iv and 2 mg/kg, po; type: ADME, organism-based; conditions: in vivo, read-out: Vdss
[4] = Clearance in mouse at 1 mg/kg, iv and 2 mg/kg, po; type: ADME, organism-based; conditions: in vivo
[5] = Half life in mouse at 1 mg/kg, iv and 2 mg/kg, po; type: ADME, organism-based; conditions: in vivo
Mus musculus = experiment: Dose normalized AUC in mouse at 2 mg/kg, po; type: ADME, organism-based; set-up: dose 2 mg/kg, route oral; conditions: in vivo
[6] = Oral bioavailability in mouse at 2 mg/kg; type: ADME, organism-based; conditions: in vivo
[7] = target: T2, Lysosomal Pro-X carboxypeptidase (Homo sapiens, UniProt P42785); experiment: Inhibition of human recombinant PrCP using Mca-Ala-Pro-Lys(Dnp)-OH as substrate for 30 mins by continuous fluorimetric assay
T2 sequence (P42785 whole entry): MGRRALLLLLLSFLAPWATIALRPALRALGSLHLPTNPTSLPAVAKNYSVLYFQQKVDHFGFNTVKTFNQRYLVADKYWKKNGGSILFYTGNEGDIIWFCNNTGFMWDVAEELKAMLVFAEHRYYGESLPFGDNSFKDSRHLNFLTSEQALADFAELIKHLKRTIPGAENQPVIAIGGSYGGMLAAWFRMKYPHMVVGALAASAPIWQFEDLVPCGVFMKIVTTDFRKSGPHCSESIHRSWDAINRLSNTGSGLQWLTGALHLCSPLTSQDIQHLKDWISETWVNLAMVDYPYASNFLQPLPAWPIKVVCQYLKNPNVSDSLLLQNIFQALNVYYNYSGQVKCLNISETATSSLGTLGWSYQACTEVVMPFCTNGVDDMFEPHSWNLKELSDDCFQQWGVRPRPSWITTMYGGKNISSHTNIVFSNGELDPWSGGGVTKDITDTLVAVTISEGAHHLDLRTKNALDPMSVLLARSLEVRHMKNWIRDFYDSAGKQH

[8] = target: T3, Lysosomal Pro-X carboxypeptidase (Homo sapiens) (UniProt P42785); experiment: Inhibition of human recombinant PrCP using Mca-Ala-Pro-Lys(Dnp)-OH as substrate at 0.5 uM for 30 mins by continuous fluorimetric assay
T3 sequence (whole entry): T2 sequence (P42785 whole entry)

[9] = target: T3, Lysosomal Pro-X carboxypeptidase (Homo sapiens); experiment: Inhibition of human recombinant PrCP using Mca-Ala-Pro-Lys(Dnp)-OH as substrate at 5 uM for 30 mins by continuous fluorimetric assay

Structure (SMILES): C[C@H](NC(=O)[C@H](Cc1cccc(C#N)c1)NC(=O)C(C)(C)N)c1nc2cc(Cl)c(Cl)cc2[nH]1
IC50 [1]: 1600 nM
IC50 [2]: 128 nM

Structure (SMILES): C[C@H](NC(=O)[C@@H](NC(=O)C(C)(C)O)[C@@H](C)c1ccc(-c2cn[nH]c2)cc1)c1nc2cc(Cl)c(Cl)cc2[nH]1
IC50 [1]: 78 nM

Structure (SMILES): CC(C)(NC(=O)CCN1CCC(c2ccccc2)CC1)c1nc2cc(Cl)c(Cl)cc2[nH]1
IC50 [7]: 181 nM

Structure (SMILES): C[C@H](NC(=O)[C@@H](NC(=O)C(C)(C)O)[C@@H](C)c1ccc(OCC(F)(F)F)cc1)c1nc2cc(Cl)c(Cl)cc2[nH]1
IC50 [1]: 45 nM

Structure (SMILES): C[C@H](NC(=O)CCN1CCN(c2ccc(F)cc2)CC1)c1nc2cc(Cl)c(Cl)cc2[nH]1
IC50 [1]: 20000 nM

Structure (SMILES): C[C@H](NC(=O)[C@@H](N)Cc1cccc(C#N)c1)c1nc2cc(Cl)c(Cl)cc2[nH]1
IC50 [1]: 5000 nM

Structure (SMILES): COc1cccc(-c2cnc(C(NC(=O)CCCOc3ccccc3)C3CCCCC3)[nH]2)c1 (configuration not stated)
inhibition [8]: 7%
inhibition [9]: 31%

Structure (SMILES): C[C@H](NC(=O)CCN1CCN(c2cccc(F)c2)CC1)c1nc2cc(Cl)c(Cl)cc2[nH]1
IC50 [1]: 5000 nM

Structure (SMILES): COc1cccc(-c2cnc([C@H](C)NC(=O)CCCOc3ccccc3)[nH]2)c1
inhibition [8]: 65%
inhibition [9]: 90%

Structure (SMILES): O=C(CCCOc1ccccc1)N[C@@H](Cc1ccccc1)c1ncc(-c2ccc(F)cc2)[nH]1
inhibition [8]: 3%
inhibition [9]: 13%

Structure (SMILES): C[C@H](NC(=O)[C@@H](NC(=O)C(C)(C)N)[C@@H](C)c1ccc(OCC(F)(F)F)cc1)c1nc2cc(Cl)c(Cl)cc2[nH]1
IC50 [1]: 92 nM

Further lines, results first:

IC50 [1]: 585 nM
Structure (SMILES): C[C@H](NC(=O)[C@H](Cc1ccc(-c2ccccc2)cc1)NCC(C)(C)N)c1nc2cc(Cl)c(Cl)cc2[nH]1

Vd [3]: 14 L/kg
clearance [4]: 58 mL/min/kg
half-life [5]: 4 h
AUC/dose (Mus musculus): 0.52 µM·kg·h/mg
IC50 [1]: 22 nM
bioavailability [6]: 17%
IC50 [2]: 0.039 nM
Structure (SMILES): C[C@H](NC(=O)[C@@H](NC(=O)C(C)(C)N)[C@@H](C)c1ccc(-c2ccccc2)cc1)c1nc2cc(Cl)c(Cl)cc2[nH]1

IC50 [7]: > 10000 nM
Structure (SMILES): Clc1cc2nc(-c3cccnc3OCCc3ccc(-c4ccccc4)cc3)[nH]c2cc1Cl

IC50 [7]: > 10000 nM
Structure (SMILES): Clc1cc2nc(-c3cccnc3NCCc3ccc(-c4ccccc4)cc3)[nH]c2cc1Cl

IC50 [7]: > 10000 nM
Structure (SMILES): O=C(CCc1ccc(-c2ccccc2)cc1)NCc1nc2cc(Cl)c(Cl)cc2[nH]1

IC50 [7]: > 10000 nM
Structure (SMILES): CC(C)(C)OC(=O)N[C@@H](Cc1ccc(-c2ccccc2)cc1)C(=O)N1CCCC[C@H]1c1nc2cc(Cl)c(Cl)cc2[nH]1

— ChEMBL document CHEMBL1949559, “Discovery of a new class of potent prolylcarboxypeptidase inhibitors derived from alanine” (Bioorg Med Chem Lett, 2012)
